Among the data in ChEMBL document CHEMBL1201862, “PubChem BioAssay data set” (2004) are IC50 values, retold here.

The source made the active and inactive calls. Rule as the data show it: actives have a measured IC50 and inactives only a lower limit.

By IC50 is commonly meant the concentration at which inhibition is half-maximal.

Envelope glycoprotein gp160, sequence (Q6QLK5 whole entry, the tested form may be a part): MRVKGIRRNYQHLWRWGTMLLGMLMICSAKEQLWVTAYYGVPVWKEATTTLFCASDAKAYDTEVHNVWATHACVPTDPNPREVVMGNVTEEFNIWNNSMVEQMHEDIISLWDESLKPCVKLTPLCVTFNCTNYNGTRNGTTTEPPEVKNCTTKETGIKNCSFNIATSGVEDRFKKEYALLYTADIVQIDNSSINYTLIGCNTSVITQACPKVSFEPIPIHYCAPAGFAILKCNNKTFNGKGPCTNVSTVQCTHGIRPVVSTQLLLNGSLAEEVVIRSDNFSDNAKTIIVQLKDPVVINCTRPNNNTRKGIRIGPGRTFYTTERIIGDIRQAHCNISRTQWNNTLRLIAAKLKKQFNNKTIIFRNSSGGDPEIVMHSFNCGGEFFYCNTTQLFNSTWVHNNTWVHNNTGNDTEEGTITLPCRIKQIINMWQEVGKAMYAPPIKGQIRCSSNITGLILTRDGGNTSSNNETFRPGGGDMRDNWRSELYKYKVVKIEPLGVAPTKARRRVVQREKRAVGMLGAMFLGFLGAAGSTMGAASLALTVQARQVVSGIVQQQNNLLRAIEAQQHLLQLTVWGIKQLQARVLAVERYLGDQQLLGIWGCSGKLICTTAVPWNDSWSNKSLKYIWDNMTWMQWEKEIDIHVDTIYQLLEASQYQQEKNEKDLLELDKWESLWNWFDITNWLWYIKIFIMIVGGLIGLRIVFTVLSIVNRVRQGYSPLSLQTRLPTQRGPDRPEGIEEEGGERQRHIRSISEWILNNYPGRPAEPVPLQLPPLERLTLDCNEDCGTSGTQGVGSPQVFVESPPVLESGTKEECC

This assay has as its target Envelope glycoprotein gp160 (Human immunodeficiency virus 1, UniProt Q6QLK5). Kind of assay: inhibitors of HIV fusion peptide binding, primary screen, biochemical, uHTS, fluorescence dequenching (AID 1986).
Consider `Cc1cc(N2C(=O)C(O)=C(C(=O)c3cc4ccccc4o3)C2c2ccc(Cl)cc2)no1` (stereo not given), for which the IC50 was 15.9 µM (active). In the case of `COc1cccc(C2C3=C(N=c4s/c(=C\c5ccc(OCC(=O)O)cc5)c(=O)n42)c2ccccc2CC3)c1` (stereo not given), the half-maximal inhibitory concentration (IC50) was 18.6 µM (active).

Consider `Cc1cc(N2C(=O)C(O)=C(C(=O)c3ccc(C)o3)C2c2cccc(Oc3ccccc3)c2)no1` (stereo not given), for which the half-inhibitory concentration (IC50) is 24.1 µM (active). Consider `CCOC(=O)c1sc(N2C(=O)C(O)=C(C(=O)c3ccc(C)o3)C2c2cccc([N+](=O)[O-])c2)nc1C` (stereo not given), for which the IC50 was 17.6 µM (active). The value for `O=C(O)c1ccc(-c2ccc(/C=C3\NC(=O)N(Cc4ccc(Cl)cc4)C3=O)o2)cc1Cl` was 10.7 µM (active).
